# According to ChEMBL document CHEMBL1926607 (J Med Chem, 2011):
# Assays:
# [1] = target: T1, 5-hydroxytryptamine receptor 3A (Rattus norvegicus, UniProt P35563); experiment: Displacement of [3H]-LY278584 from 5HT3 receptor in Sprague-Dawley albinus rat cerebral cortex membranes after 30 mins; assay type: cell membranes, Membrane
# T1 sequence (P35563 whole entry): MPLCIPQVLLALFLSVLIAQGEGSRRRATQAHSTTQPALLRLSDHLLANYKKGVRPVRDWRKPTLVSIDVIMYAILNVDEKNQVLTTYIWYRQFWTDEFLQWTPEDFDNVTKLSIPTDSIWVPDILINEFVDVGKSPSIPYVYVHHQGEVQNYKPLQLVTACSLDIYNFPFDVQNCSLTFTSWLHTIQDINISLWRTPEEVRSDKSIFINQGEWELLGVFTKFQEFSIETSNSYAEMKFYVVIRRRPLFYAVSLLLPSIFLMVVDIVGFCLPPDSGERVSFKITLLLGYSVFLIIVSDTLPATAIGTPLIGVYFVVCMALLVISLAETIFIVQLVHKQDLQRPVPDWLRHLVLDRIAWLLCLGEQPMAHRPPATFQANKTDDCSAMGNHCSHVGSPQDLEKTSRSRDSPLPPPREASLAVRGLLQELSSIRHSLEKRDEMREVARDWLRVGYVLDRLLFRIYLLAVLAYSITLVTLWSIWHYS
# [2] = target: T2, 5-hydroxytryptamine receptor 1A (Homo sapiens) (UniProt P08908); experiment: Agonist activity at human 5HT1A receptor expressed in human HeLa cells assessed as inhibition of forskolin-stimulated cAMP production pretreated 20 mins before forskolin challenge measured after 2 hrs by RIA relative to control; assay type: functional, cell-based
# T2 sequence (whole entry): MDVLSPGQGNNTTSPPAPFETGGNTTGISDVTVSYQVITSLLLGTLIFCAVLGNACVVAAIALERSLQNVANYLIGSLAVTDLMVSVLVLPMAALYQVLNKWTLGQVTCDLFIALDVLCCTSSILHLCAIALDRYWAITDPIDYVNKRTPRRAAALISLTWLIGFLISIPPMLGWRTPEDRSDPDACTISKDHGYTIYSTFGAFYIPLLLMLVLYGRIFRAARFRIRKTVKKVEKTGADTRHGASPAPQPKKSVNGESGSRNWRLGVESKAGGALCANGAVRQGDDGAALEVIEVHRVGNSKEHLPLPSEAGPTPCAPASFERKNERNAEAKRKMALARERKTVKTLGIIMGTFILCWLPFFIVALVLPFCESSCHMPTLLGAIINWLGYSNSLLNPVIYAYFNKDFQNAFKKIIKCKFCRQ
# [3] = target: T3, 5-hydroxytryptamine receptor 1A (Rattus norvegicus, UniProt P19327); experiment: Displacement of [3H]-8-OH-DPAT from 5-HT1A receptor in Sprague-Dawley albinus rat cerebral cortex membranes after 15 mins; assay type: cell membranes, Membrane
# T3 sequence (P19327 whole entry): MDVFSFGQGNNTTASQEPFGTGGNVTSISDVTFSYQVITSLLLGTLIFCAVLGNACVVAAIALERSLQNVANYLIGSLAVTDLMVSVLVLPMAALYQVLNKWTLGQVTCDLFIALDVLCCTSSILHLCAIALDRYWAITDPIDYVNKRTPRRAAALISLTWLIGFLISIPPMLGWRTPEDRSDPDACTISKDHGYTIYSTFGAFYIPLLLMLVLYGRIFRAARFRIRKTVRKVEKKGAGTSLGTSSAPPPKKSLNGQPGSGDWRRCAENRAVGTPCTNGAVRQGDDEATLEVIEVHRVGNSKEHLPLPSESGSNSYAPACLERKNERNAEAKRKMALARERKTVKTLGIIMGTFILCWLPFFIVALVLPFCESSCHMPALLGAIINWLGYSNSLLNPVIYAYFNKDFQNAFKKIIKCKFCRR
# [4] = Neuroprotective activity in Wistar rat hippocampi primary neuronal cells assessed as protection against oxygen-glucose deprivation induced cell death at 10 uM after 18 hrs by MTT assay; assay type: functional, Hippocampus, Primary neuron
smiles,measurement,setting,value
Cl.O=C1C2CCCN2C(=O)CN1CCCCNCC1CCc2ccccc2O1 (centres undefined),Ki,[1],> 1000 nM
same,Emax,[2],87.6%
same,Ki,[3],21 nM
same,Activity,[4],66%
